Tests used:
[1] = biological target: Isoform Alpha-1 of Mitogen-activated protein kinase 10 (Alpha-1) 9-402] (Homo sapiens, UniProt P53779); experiment: Homogeneous Time-resolved Fluorescence Assay; settings: pH 7; 22 °C
Experimental: (§1) Biochemical IC50s for JNK were determined using HTRF. In each assay the phosphor-Thr71-ATF-2 product was detected using a Europium-cryptate labeled anti-phospho-Thr71-ATF-2 antibody. Streptavidin-allophycocyanin-XL was used as the acceptor. A 10-point dose-response curve for each compound was generated in duplicate and data was fit to a four parameter logistic.

[2] = biological target: Mitogen-activated protein kinase 8 (Homo sapiens, UniProt P45983); experiment: Homogeneous Time-resolved Fluorescence Assay
Sequence of Mitogen-activated protein kinase 8 (P45983 whole entry): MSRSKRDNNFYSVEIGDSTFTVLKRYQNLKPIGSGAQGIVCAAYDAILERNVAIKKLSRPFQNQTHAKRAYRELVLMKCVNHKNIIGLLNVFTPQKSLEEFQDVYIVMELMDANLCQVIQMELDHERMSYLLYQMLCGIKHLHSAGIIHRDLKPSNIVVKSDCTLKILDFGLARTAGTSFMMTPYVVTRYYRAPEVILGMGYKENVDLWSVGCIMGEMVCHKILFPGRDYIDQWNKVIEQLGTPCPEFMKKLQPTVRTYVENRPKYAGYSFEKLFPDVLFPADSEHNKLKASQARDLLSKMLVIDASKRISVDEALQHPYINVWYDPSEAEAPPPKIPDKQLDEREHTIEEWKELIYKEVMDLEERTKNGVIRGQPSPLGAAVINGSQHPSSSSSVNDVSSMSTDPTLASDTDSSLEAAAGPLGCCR
Experimental: as §1

Sequence of Isoform Alpha-1 of Mitogen-activated protein kinase 10 (Alpha-1) 9-402] (P53779 39-402): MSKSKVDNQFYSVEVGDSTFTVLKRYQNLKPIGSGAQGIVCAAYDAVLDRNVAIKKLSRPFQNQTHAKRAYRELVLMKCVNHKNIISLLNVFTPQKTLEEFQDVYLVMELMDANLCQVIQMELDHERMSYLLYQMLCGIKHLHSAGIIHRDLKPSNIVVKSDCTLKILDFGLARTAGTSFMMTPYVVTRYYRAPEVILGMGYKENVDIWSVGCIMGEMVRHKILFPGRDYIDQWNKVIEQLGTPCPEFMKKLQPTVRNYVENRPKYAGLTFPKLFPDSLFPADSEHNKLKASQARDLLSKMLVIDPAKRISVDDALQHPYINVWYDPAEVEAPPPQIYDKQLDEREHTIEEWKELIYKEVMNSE

IC50 [1]: 1260 nM
IC50 [2]: 380 nM
Structure (SMILES): C=CCN1CCN(c2c(Cl)cccc2NC(=O)c2ccc(Br)o2)CC1 [piperazine amide, 6a]

From BindingDB's records for doi:10.1016/j.bmcl.2009.03.086 (The Scripps Research Institute, 2009)
